From US20040152904A1, “Delta1 pyrrolines” (priority 2001, published 2004)

System: Amblyomma variegatum or A. hebraeum, nymphs which have sucked themselves full
Test: Nymphecdysis test on polyphagous ticks
Assay type: in vivo
Conditions: 100 ppm active compound; nymphs immersed for 1 minute
Description: Nymphecdysis Test on Polyphagous Ticks
Test animals: Amblyomma variegatum or A. hebraeum, nymphs which have sucked themselves full
Solvent: Dimethyl sulphoxide
20 mg of active compound are dissolved in 1 ml of dimethyl sulphoxide, more dilute concentrations are prepared by dilution with distilled water.
10 nymphs which have sucked themselves full are immersed for 1 minute into the preparation of active compound to be tested. The animals are transferred to petri dishes (∅ 9.5 cm) fitted with filter discs and covered. […]
100% means that none of the animals have undergone normal ecdysis. 0% means that all animals have undergone ecdysis.
In this test, for example, the compounds 4 and 5 of the preparation examples show good activity.

Row | SMILES | Effect on ecdysis in % after 48h [%]
1 | CCOCn1nnc(-c2ccc(-c3ccc(C4CCC(c5c(F)cccc5F)=N4)cc3)cc2)n1 (stereo not shown) [drawing 74] | 100
2 | CCn1nnc(-c2ccc(-c3ccc(C4CCC(c5c(F)cccc5F)=N4)cc3)cc2)n1 (stereo not shown) [drawing 73] | 100

Same assay, conditions: in vivo

Row | SMILES | activity in the nymphecdysis test
3 | CCn1nnc(-c2ccc(-c3ccc(C4CCC(c5c(F)cccc5F)=N4)cc3)cc2)n1 (stereo not shown) [Example 5, 5-{4′-[5-(2,6-difluorophenyl)-3,4-dihydro-2Hpyrrol-2-yl]-1,1′-biphenyl-4-yl}-2-ethyl-2H-tetrazole] | good activity
4 | CCOCn1nnc(-c2ccc(-c3ccc(C4CCC(c5c(F)cccc5F)=N4)cc3)cc2)n1 (stereo not shown) [Example 4, 5-{4′-[5-(2,6-difluorophenyl)-3,4-dihydro-2H-pyrrol-2-yl]-1,1′-biphenyl-4-yl}-2-(ethoxymethyl)-2H-tetrazole] | good activity

System: army worm (Spodoptera frugiperda) caterpillars
Test: Spodoptera frugiperda test
Assay type: in vivo
Conditions: 1000 ppm active compound, cabbage leaves dipped
Description: (§1) Spodoptera frugiperda Test Solvent: 30 parts by weight of dimethylformamide Emulsifier: 1 part by weight of alkylaryl polyglycol ether To produce a suitable preparation of active compound, 1 part by weight of active compound is mixed with the stated amounts of solvent and emulsifier, and the concentrate is diluted with emulsifier-containing water to the desired concentration. Cabbage leaves (Brassica oleracea) are treated by being dipped into the preparation of active compound of the desired concentration and are populated with army worm (Spodoptera frugiperda) caterpillars whilst the leaves are still moist. After the desired period of time, the kill in % is determined. 100% means that all caterpillars have been killed; 0% means that none of the caterpillars have been killed.

Row | SMILES | Kill rate in % after 7d [%]
5 | CC(C)(C)n1nnc(-c2ccc(-c3ccc(C4CCC(c5c(F)cccc5F)=N4)cc3)cc2)n1 (stereo not shown) [drawing 63] | 100
6 | CCOCn1nnc(-c2ccc(-c3ccc(C4CCC(c5c(F)cccc5F)=N4)cc3)cc2)n1 (stereo not shown) [drawing 66] | 100
7 | CCCn1nnc(-c2ccc(C3CCC(c4c(F)cccc4F)=N3)cc2)n1 (stereo not shown) [drawing 64] | 100
8 | CCn1nnc(-c2ccc(-c3ccc(C4CCC(c5c(F)cccc5F)=N4)cc3)cc2)n1 (stereo not shown) [drawing 65] | 100

System: not listed separately
Test: logP by HPLC (EEC Directive 79/831 Annex V.A8, reversed-phase C 18)
Assay type: physicochemical
Conditions: reversed-phase HPLC column (C 18), pH 2.3, 0.1% aqueous phosphoric acid / acetonitrile, 43° C., read-out: logP (pH 2.3)
Description: The stated logP values were determined in accordance with EEC Directive 79/831 Annex V.A8 by HPLC (High Performance Liquid Chromatography) using a reversed-phase column (C 18). Temperature: 43° C.
In the acidic range, the determination was carried out at pH 2.3 using the mobile phases 0.1% aqueous phosphoric acid and acetonitrile; linear gradient from 10% acetonitrile to 90% acetonitrile.
In the neutral range, the determination was carried out at pH 7.5 using the mobile phases 0.01 molar aqueous phosphate buffer solution and acetonitrile; linear gradient from 10% acetonitrile to 90% acetonitrile.
Calibration was carried out using unbranched alkan-2-ones (having 3 to 16 carbon atoms) with known logP values (determination of the logP values by the retention times using linear interpolation between two successive alkanones).

Row | SMILES | chromatographic logP
9 | CC(C)(C)n1nnc(-c2ccc(B(O)O)cc2)n1 [Example V-1, 4-[(2-tert-butyl)-2H-tetrazol-5-yl]phenylboronic acid] | 2.01
10 | N#Cc1ccc(C2CCC(=O)N2)cc1 (stereo not shown) [XIII-a-1, 4-(5-oxo-2-pyrrolidinyl)benzonitrile] | 0.96
11 | CC(C)(C)n1nnc(-c2ccc(Br)cc2)n1 [VII-1, 2-tert-butyl-5-(4-bromo-phenyl)-1(2)H-tetrazole] | 4.23
12 | N#Cc1ccc(-c2ccc(C3CCC(c4c(F)cccc4F)=N3)cc2)cc1 (stereo not shown) [VIII-2, 4′-[5-(2,6-difluorophenyl)-3,4-dihydro-2H-pyrrol-2-yl]-1,1′-biphenyl-4carbonitrile] | 2.84
13 | CCn1nnc(-c2ccc(Br)cc2)n1 [VII-3, 2-ethyl-5-(4-bromo-phenyl)-1(2)H-tetrazole] | 3.2
14 | CCn1nnc(-c2ccc(-c3ccc(C4CCC(c5c(F)cccc5F)=N4)cc3)cc2)n1 (stereo not shown) [Example 5, 5-{4′-[5-(2,6-difluorophenyl)-3,4-dihydro-2Hpyrrol-2-yl]-1,1′-biphenyl-4-yl}-2-ethyl-2H-tetrazole] | 3.21
15 | CCOCn1nnc(-c2ccc(Br)cc2)n1 [VII-2, 2-ethoxymethyl-5-(4-bromo-phcnyl)-1(2)H tetrazole] | 3.42
16 | OB(O)c1ccc(-c2nn[nH]n2)cc1 [Example V-2, 4-(2H-tetrazol-5-yl)-phenylboronic acid] | 0.19
17 | N#Cc1ccc(-c2ccccc2C2CCC(=O)N2)cc1 (stereo not shown) [2′-(5-oxo-2-pyrrolidinyl)-1,1′-biphenyl-4carbonitrile] | 1.94
18 | CC(C)(C)OC(=O)N1C(=O)CCC1c1ccc(C#N)cc1 (stereo not shown) [XI-1, tert-butyl-2-(4-cyanophenyl)-5-oxo-1-pyrrolidinecarboxylate] | 2.12
19 | CC(C)(C)OC(=O)N1C(=O)CCC1c1ccc(-c2ccc(C#N)cc2)cc1 (stereo not shown) [XI-2, tert-butyl 2(4′-cyano-1,1′-biphenyl-4-yl)-5-oxo-1-pyrrolidinecarboxylate] | 3.03
20 | CCCn1nnc(-c2ccc(C3CCC(c4c(F)cccc4F)=N3)cc2)n1 (stereo not shown) [Example 1] | 2.61
21 | N#Cc1ccc(C2CCC(c3c(F)cccc3F)=N2)cc1 (stereo not shown) [VIII-1, 4-[5-(2,6-difluorophenyl)-3,4-dihydro-2Hpyrrol-2-yl]benzonitrile] | 2.11
22 | N#Cc1ccc(-c2ccc(C3CCC(=O)N3)cc2)cc1 (stereo not shown) [XIII-b-1, 4′-(5-oxo-2-pyrrolidinyl)-1,1′-biphenyl-4carbonitrile] | 1.92
23 | Fc1cccc(F)c1C1=NC(c2ccc(-c3nn[nH]n3)cc2)CC1 (stereo not shown) [I-a-1] | 1.28
24 | CC(C)(C)n1nnc(-c2ccc(-c3ccc(C4CCC(c5c(F)cccc5F)=N4)cc3)cc2)n1 (stereo not shown) [Example 2, 2-tert-butyl-5-{4′-[5-(2,6-difluorophenyl)-3,4dihydro-2H-pyrrol-2-yl]-1,1′-biphenyl-4-yl}-2H-tetrazole] | 4.14

Same assay, conditions: reversed-phase HPLC column (C 18), pH not printed at the place, read-out: logP

Row | SMILES | chromatographic logP
25 | CC(C)(C)n1nnc(-c2ccc(-c3ccc(C4CCC(c5c(F)cccc5F)=N4)cc3)cc2)n1 (stereo not shown) [Example 3, 2-tert-butyl-5-{4′-[5-(2,6-difluorophenyl)-3,4dihydro-2H-pyrrol-2-yl]-1′-biphenyl-4-yl}-2H-tetrazole] | 4.14
26 | CCOCn1nnc(-c2ccc(-c3ccc(C4CCC(c5c(F)cccc5F)=N4)cc3)cc2)n1 (stereo not shown) [Example 4, 5-{4′-[5-(2,6-difluorophenyl)-3,4-dihydro-2H-pyrrol-2-yl]-1,1′-biphenyl-4-yl}-2-(ethoxymethyl)-2H-tetrazole] | 3.4

System: not given
Test: not given
Conditions: not given

Row | SMILES | melting point [°C]
27 | N#Cc1ccc(C2CCC(=O)N2)cc1 (stereo not shown) [XIII-a-1, 4-(5-oxo-2-pyrrolidinyl)benzonitrile] | 155
28 | N#Cc1ccc(-c2ccc(C3CCC(c4c(F)cccc4F)=N3)cc2)cc1 (stereo not shown) [VIII-2, 4′-[5-(2,6-difluorophenyl)-3,4-dihydro-2H-pyrrol-2-yl]-1,1′-biphenyl-4carbonitrile] | 123
29 | CC(C)(C)OC(=O)N1C(=O)CCC1c1ccc(-c2ccc(C#N)cc2)cc1 (stereo not shown) [XI-2, tert-butyl 2(4′-cyano-1,1′-biphenyl-4-yl)-5-oxo-1-pyrrolidinecarboxylate] | 152
30 | N#Cc1ccc(C2CCC(c3c(F)cccc3F)=N2)cc1 (stereo not shown) [VIII-1, 4-[5-(2,6-difluorophenyl)-3,4-dihydro-2Hpyrrol-2-yl]benzonitrile] | 57
31 | CC(C)(C)n1nnc(-c2ccc(-c3ccc(C4CCC(c5c(F)cccc5F)=N4)cc3)cc2)n1 (stereo not shown) [Example 2, 2-tert-butyl-5-{4′-[5-(2,6-difluorophenyl)-3,4dihydro-2H-pyrrol-2-yl]-1,1′-biphenyl-4-yl}-2H-tetrazole] | 96

System: greenhouse red spider mite (tetranychus urticae)
Test: Tetranychus test (OP-resistant/dip treatment)
Assay type: in vivo
Conditions: 100 ppm active compound, bean plants dipped
Description: Tetranychus Test (OP-Resistant/Dip Treatment)
Solvent: 30 parts by weight of dimethylformamide
Emulsifier: 1 part by weight of alkylaryl polyglycol ether
To produce a suitable preparation of active compound, 1 part by weight of active compound is mixed with the stated amounts of solvent and emulsifier, and the. concentrate is diluted with emulsifier-containing water to the. desired concentration.
Bean plants (Phaseolus vulgaris) which are heavily infested by all stages of the greenhouse red spider mite (tetranychus urticae) are dipped into a preparation of active compound of the desired concentration.
After the desired period of time, the effect in % is determined. 100% means that all spider mites have been killed; 0% means that none of the spider mites have been killed.

Row | SMILES | Kill rate in % after 7d [%]
32 | CCCn1nnc(-c2ccc(C3CCC(c4c(F)cccc4F)=N3)cc2)n1 (stereo not shown) [drawing 68] | 90
33 | CCOCn1nnc(-c2ccc(-c3ccc(C4CCC(c5c(F)cccc5F)=N4)cc3)cc2)n1 (stereo not shown) [drawing 70] | 98
34 | CC(C)(C)n1nnc(-c2ccc(-c3ccc(C4CCC(c5c(F)cccc5F)=N4)cc3)cc2)n1 (stereo not shown) [drawing 67] | 98
35 | CCn1nnc(-c2ccc(-c3ccc(C4CCC(c5c(F)cccc5F)=N4)cc3)cc2)n1 (stereo not shown) [drawing 69] | 98

System: army worm (Spodoptera exigua) caterpillars
Test: Spodoptera exigua test
Assay type: in vivo
Conditions: 8 ppm active compound, cabbage leaves dipped
Description: as §1, with “exigua” for “frugiperda”, “7” for “30”, “exigua)” for “frugiperda)”

Row | SMILES | Kill rate in % after 6d [%]
36 | CC(C)(C)n1nnc(-c2ccc(-c3ccc(C4CCC(c5c(F)cccc5F)=N4)cc3)cc2)n1 (stereo not shown) [drawing 61] | 100

Same assay, conditions: 40 ppm active compound, cabbage leaves dipped

Row | SMILES | Kill rate in % after 6d [%]
37 | CCn1nnc(-c2ccc(-c3ccc(C4CCC(c5c(F)cccc5F)=N4)cc3)cc2)n1 (stereo not shown) [drawing 62] | 100

System: Heliothis virescens caterpillars
Test: Heliothis virescens test
Assay type: in vivo
Conditions: 40 ppm active compound, soyabean shoots dipped
Description: as §1, with “Heliothis virescens” for “Spodoptera frugiperda”, “Soyabean shoots (Glycine max)” for “Cabbage leaves (Brassica oleracea)”, “Heliothis virescens” for “army worm (Spodoptera frugiperda)”

Row | SMILES | Kill rate in % after 6d [%]
38 | CC(C)(C)n1nnc(-c2ccc(-c3ccc(C4CCC(c5c(F)cccc5F)=N4)cc3)cc2)n1 (stereo not shown) [drawing 54] | 100
39 | CCn1nnc(-c2ccc(-c3ccc(C4CCC(c5c(F)cccc5F)=N4)cc3)cc2)n1 (stereo not shown) [drawing 55] | 100

System: larvae of the mustard beetle (Phaedon cochleariae)
Test: Phaedon larvae test
Assay type: in vivo
Conditions: 1000 ppm active compound, cabbage leaves dipped
Description: as §1, with “Phaedon larvae” for “Spodoptera frugiperda”, “larvae of the mustard beetle (Phaedon cochleariae)” for “army worm (Spodoptera frugiperda) caterpillars”, “beetle larvae” for “caterpillars”

Row | SMILES | Kill rate in % after 7d [%]
40 | CC(C)(C)n1nnc(-c2ccc(-c3ccc(C4CCC(c5c(F)cccc5F)=N4)cc3)cc2)n1 (stereo not shown) [drawing 56] | 100
41 | CCOCn1nnc(-c2ccc(-c3ccc(C4CCC(c5c(F)cccc5F)=N4)cc3)cc2)n1 (stereo not shown) [drawing 59] | 100
42 | CCn1nnc(-c2ccc(-c3ccc(C4CCC(c5c(F)cccc5F)=N4)cc3)cc2)n1 (stereo not shown) [drawing 58] | 100
43 | CCCn1nnc(-c2ccc(C3CCC(c4c(F)cccc4F)=N3)cc2)n1 (stereo not shown) [drawing 57] | 100
